# Data published in the supplement of paper PMC5908809.
# Key:
# [1] = tested on: normal NK cells expanded with K562-aAPC; assay: drug sensitivity score (DSS) (DSS units); higher = more sensitive; extreme values may be limits of the assay; settings: 72 h; IL-2 2.5 ng/mL
# Method: (§1)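 Drug sensitivity and resistance testing on K562-aAPC-expanded normal NK cells: 5 concentrations (10-fold steps over a 10,000-fold range), 72 h at 37 °C, viability by CellTiter-Glo normalised to DMSO and benzethonium chloride controls; DSS from the fitted curve.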
# IMC-1 (IL-2 20 ng/mL) [2] = assay: percent inhibition of viability; higher = more inhibition; settings: 72 h
# KAI3 (IL-2 2.5 ng/mL) [3] = assay: as above; settings: 72 h
# [4] = tested on: normal primary NK cells, pool 1 (3 donors) (IL-2 2.5 ng/mL); assay: as above; settings: 72 h
# KHYG-1 (IL-2 2.5 ng/mL) [5] = assay: as above; settings: 72 h
# SNK-6 (IL-2 2.5 ng/mL) [6] = assay: as above; settings: 72 h
# NK-YS (IL-2 2.5 ng/mL) [7] = assay: as above; settings: 72 h
# [8] = tested on: normal primary NK cells, pool 3 (3 donors) (IL-2 2.5 ng/mL); assay: as above; settings: 72 h
# [9] = tested on: normal primary NK cells, pool 1 (3 donors), resting (IL-2 0 ng/mL); assay: as above; settings: 72 h
# [10] = tested on: normal primary NK cells, pool 2 (3 donors) (IL-2 2.5 ng/mL); assay: as above; settings: 72 h
# NK-92 (IL-2 2.5 ng/mL) [11] = assay: as above; settings: 72 h
# DERL-7 (IL-2 2.5 ng/mL) [12] = assay: as above; settings: 72 h
# YT (IL-2 2.5 ng/mL) [13] = assay: as above; settings: 72 h
# NKL (IL-2 2.5 ng/mL) [14] = assay: as above; settings: 72 h
# IMC-1 (IL-2 20 ng/mL) [15] = assay: drug sensitivity score (DSS) (DSS units); higher = more sensitive; extreme values may be limits of the assay; settings: 72 h
# KAI3 (IL-2 2.5 ng/mL) [16] = assay: as above; settings: 72 h
# [17] = tested on: normal primary NK cells, pool 1 (3 donors) (IL-2 2.5 ng/mL); assay: as above; settings: 72 h
# KHYG-1 (IL-2 2.5 ng/mL) [18] = assay: as above; settings: 72 h
# SNK-6 (IL-2 2.5 ng/mL) [19] = assay: as above; settings: 72 h
# NK-YS (IL-2 2.5 ng/mL) [20] = assay: as above; settings: 72 h
# [21] = tested on: normal primary NK cells, pool 3 (3 donors) (IL-2 2.5 ng/mL); assay: as above; settings: 72 h
# [22] = tested on: normal primary NK cells, pool 1 (3 donors), resting (IL-2 0 ng/mL); assay: as above; settings: 72 h
# [23] = tested on: normal primary NK cells, pool 2 (3 donors) (IL-2 2.5 ng/mL); assay: as above; settings: 72 h
# NK-92 (IL-2 2.5 ng/mL) [24] = assay: as above; settings: 72 h
# DERL-7 (IL-2 2.5 ng/mL) [25] = assay: as above; settings: 72 h
# YT (IL-2 2.5 ng/mL) [26] = assay: as above; settings: 72 h
# NKL (IL-2 2.5 ng/mL) [27] = assay: as above; settings: 72 h
# [28] = tested on: normal NK cells expanded with K562-aAPC; assay: percent inhibition of viability; higher = more inhibition; settings: 72 h, IL-2 2.5 ng/mL
# Method: as §1
compound,measurement,setting,value
CS(=O)(=O)CCNCc1ccc(-c2ccc3ncnc(Nc4ccc(OCc5cccc(F)c5)c(Cl)c4)c3c2)o1 [Lapatinib] (max concentration tested 1000 nM),drug sensitivity score,[1],0
same,percent inhibition of viability,IMC-1 (IL-2 20 ng/mL) [2]; 0.1 nM,-4.47%
same,percent inhibition of viability,IMC-1 (IL-2 20 ng/mL) [2]; 1 nM,-0.19%
same,percent inhibition of viability,IMC-1 (IL-2 20 ng/mL) [2]; 10 nM,-1%
same,percent inhibition of viability,IMC-1 (IL-2 20 ng/mL) [2]; 100 nM,2.17%
same,percent inhibition of viability,IMC-1 (IL-2 20 ng/mL) [2]; 1000 nM,9.49%
same,percent inhibition of viability,KAI3 (IL-2 2.5 ng/mL) [3]; 0.1 nM,-4.84%
same,percent inhibition of viability,KAI3 (IL-2 2.5 ng/mL) [3]; 1 nM,-7.01%
same,percent inhibition of viability,KAI3 (IL-2 2.5 ng/mL) [3]; 10 nM,-5.48%
same,percent inhibition of viability,KAI3 (IL-2 2.5 ng/mL) [3]; 100 nM,-1.85%
same,percent inhibition of viability,KAI3 (IL-2 2.5 ng/mL) [3]; 1000 nM,11.8%
same,percent inhibition of viability,[4]; 0.1 nM,-9.91%
same,percent inhibition of viability,[4]; 1 nM,11.7%
same,percent inhibition of viability,[4]; 10 nM,10.2%
same,percent inhibition of viability,[4]; 100 nM,12.6%
same,percent inhibition of viability,[4]; 1000 nM,4.9%
same,percent inhibition of viability,KHYG-1 (IL-2 2.5 ng/mL) [5]; 0.1 nM,-0.63%
same,percent inhibition of viability,KHYG-1 (IL-2 2.5 ng/mL) [5]; 1 nM,-4.12%
same,percent inhibition of viability,KHYG-1 (IL-2 2.5 ng/mL) [5]; 10 nM,-1.74%
same,percent inhibition of viability,KHYG-1 (IL-2 2.5 ng/mL) [5]; 100 nM,0.27%
same,percent inhibition of viability,KHYG-1 (IL-2 2.5 ng/mL) [5]; 1000 nM,9.49%
same,percent inhibition of viability,SNK-6 (IL-2 2.5 ng/mL) [6]; 0.1 nM,-20.3%
same,percent inhibition of viability,SNK-6 (IL-2 2.5 ng/mL) [6]; 1 nM,-7.47%
same,percent inhibition of viability,SNK-6 (IL-2 2.5 ng/mL) [6]; 10 nM,-17%
same,percent inhibition of viability,SNK-6 (IL-2 2.5 ng/mL) [6]; 100 nM,-15.2%
same,percent inhibition of viability,SNK-6 (IL-2 2.5 ng/mL) [6]; 1000 nM,-16.8%
same,percent inhibition of viability,NK-YS (IL-2 2.5 ng/mL) [7]; 0.1 nM,-7.32%
same,percent inhibition of viability,NK-YS (IL-2 2.5 ng/mL) [7]; 1 nM,-8.47%
same,percent inhibition of viability,NK-YS (IL-2 2.5 ng/mL) [7]; 10 nM,-3.59%
same,percent inhibition of viability,NK-YS (IL-2 2.5 ng/mL) [7]; 100 nM,-5.11%
same,percent inhibition of viability,NK-YS (IL-2 2.5 ng/mL) [7]; 1000 nM,5.83%
same,percent inhibition of viability,[8]; 0.1 nM,-12.2%
same,percent inhibition of viability,[8]; 1 nM,9.92%
same,percent inhibition of viability,[8]; 10 nM,7.91%
same,percent inhibition of viability,[8]; 100 nM,-3.46%
same,percent inhibition of viability,[8]; 1000 nM,-0.3%
same,percent inhibition of viability,[9]; 0.1 nM,-12%
same,percent inhibition of viability,[9]; 1 nM,4%
same,percent inhibition of viability,[9]; 10 nM,-0.24%
same,percent inhibition of viability,[9]; 100 nM,6.97%
same,percent inhibition of viability,[9]; 1000 nM,30.1%
same,percent inhibition of viability,[10]; 0.1 nM,-7.46%
same,percent inhibition of viability,[10]; 1 nM,8.95%
same,percent inhibition of viability,[10]; 10 nM,4.77%
same,percent inhibition of viability,[10]; 100 nM,1.81%
same,percent inhibition of viability,[10]; 1000 nM,4%
same,percent inhibition of viability,NK-92 (IL-2 2.5 ng/mL) [11]; 0.1 nM,-9.88%
same,percent inhibition of viability,NK-92 (IL-2 2.5 ng/mL) [11]; 1 nM,-2.81%
same,percent inhibition of viability,NK-92 (IL-2 2.5 ng/mL) [11]; 10 nM,5.1%
same,percent inhibition of viability,NK-92 (IL-2 2.5 ng/mL) [11]; 100 nM,30.6%
same,percent inhibition of viability,NK-92 (IL-2 2.5 ng/mL) [11]; 1000 nM,28.1%
same,percent inhibition of viability,DERL-7 (IL-2 2.5 ng/mL) [12]; 0.1 nM,4.2%
same,percent inhibition of viability,DERL-7 (IL-2 2.5 ng/mL) [12]; 1 nM,1.17%
same,percent inhibition of viability,DERL-7 (IL-2 2.5 ng/mL) [12]; 10 nM,2.53%
same,percent inhibition of viability,DERL-7 (IL-2 2.5 ng/mL) [12]; 100 nM,-0.89%
same,percent inhibition of viability,DERL-7 (IL-2 2.5 ng/mL) [12]; 1000 nM,9.64%
same,percent inhibition of viability,YT (IL-2 2.5 ng/mL) [13]; 0.1 nM,-1.2%
same,percent inhibition of viability,YT (IL-2 2.5 ng/mL) [13]; 1 nM,-2.12%
same,percent inhibition of viability,YT (IL-2 2.5 ng/mL) [13]; 10 nM,-1.08%
same,percent inhibition of viability,YT (IL-2 2.5 ng/mL) [13]; 100 nM,6.88%
same,percent inhibition of viability,YT (IL-2 2.5 ng/mL) [13]; 1000 nM,14.2%
same,percent inhibition of viability,NKL (IL-2 2.5 ng/mL) [14]; 0.1 nM,-3.26%
same,percent inhibition of viability,NKL (IL-2 2.5 ng/mL) [14]; 1 nM,-0.98%
same,percent inhibition of viability,NKL (IL-2 2.5 ng/mL) [14]; 10 nM,3.19%
same,percent inhibition of viability,NKL (IL-2 2.5 ng/mL) [14]; 100 nM,8.28%
same,percent inhibition of viability,NKL (IL-2 2.5 ng/mL) [14]; 1000 nM,14.2%
same,drug sensitivity score,IMC-1 (IL-2 20 ng/mL) [15],0
same,drug sensitivity score,KAI3 (IL-2 2.5 ng/mL) [16],0.01
same,drug sensitivity score,[17],1.89
same,drug sensitivity score,KHYG-1 (IL-2 2.5 ng/mL) [18],0
same,drug sensitivity score,SNK-6 (IL-2 2.5 ng/mL) [19],0
same,drug sensitivity score,NK-YS (IL-2 2.5 ng/mL) [20],0
same,drug sensitivity score,[21],0
same,drug sensitivity score,[22],2.38
same,drug sensitivity score,[23],0
same,drug sensitivity score,NK-92 (IL-2 2.5 ng/mL) [24],6.01
same,drug sensitivity score,DERL-7 (IL-2 2.5 ng/mL) [25],0
same,drug sensitivity score,YT (IL-2 2.5 ng/mL) [26],0.63
same,drug sensitivity score,NKL (IL-2 2.5 ng/mL) [27],0.4
same,percent inhibition of viability,[28]; 0.1 nM,-5.72%
same,percent inhibition of viability,[28]; 1 nM,-9.28%
same,percent inhibition of viability,[28]; 10 nM,-7.55%
same,percent inhibition of viability,[28]; 100 nM,-4.36%
same,percent inhibition of viability,[28]; 1000 nM,-0.7%
